The melting point is the temperature, or range, at which the solid turns liquid.

These results are taken from US9834559B2, “4-Amino-6-phenyl-5,6-dihydroimidazo[1,5-a]pyrazin-3(2H)-one derivatives as inhibitors of beta-secretase (BACE)” (Janssen Pharmaceutica NV, priority 2013, dated 2017).

In data set [1] the test system is brain levels of soluble Aβ40 and Aβ42. The data set is described as follows: In vivo Aβ lowering, brain levels of soluble Aβ by MSD electrochemiluminescence. As to conditions: untreated control = 100. The arrangement: species or system mouse. From the text: To determine whether acute administration of an Aβ lowering agent would reduce Aβ levels in vivo, non-transgenic rodents, e.g. mice or rats were used. Animals treated with the Aβ lowering agent were examined and compared to those untreated or treated with vehicle and brain levels of soluble Aβ42, Aβ40, Aβ38, and Aβ37 were quantitated by Meso Scale Discovery's (MSD) electrochemiluminescence detection technology. Treatment periods varied from hours (h) to days and were adjusted based on the results of the Aβ lowering once a time course of onset of effect could be established.
A typical protocol for measuring Aβ lowering in vivo is shown but it is only one of many variations that could be used to optimize the levels of detectable Aβ. For example, Aβ lowering compounds were formulated in 20% of Captisol® (a sulfo-butyl ether of β-cyclodextrin) in water or 20% hydroxypropyl β cyclodextrin. The Aβ lowering agents were administered as a single oral dose or by any acceptable route of administration to overnight fasted animals. After 4 h, the animals were sacrificed and Aβ levels were analysed.
Blood was collected by decapitation and exsanguinations in EDTA-treated collection tubes. Blood was centrifuged at 1900 g for 10 minutes (min) at 4° C. and the plasma recovered and flash frozen for later analysis. The brain was removed from the cranium and hindbrain. The cerebellum was removed and the left and right hemisphere were separated. The left hemisphere was stored at −18° C. for quantitative analysis of test compound levels. The right hemisphere was rinsed with phosphate-buffered saline (PBS) buffer and immediately frozen on dry ice and stored at −80° C. until homogenization for biochemical assays.
Mouse brains from non-transgenic animals were resuspended in 8 volumes of 0.4% DEA (diethylamine)/50 mM NaCl containing protease inhibitors (Roche-11873580001 or 04693159001) per gram of tissue, e.g. for 0.158 g brain, add 1.264 ml of 0.4% DEA. All samples were homogenized in the FastPrep-24 system (MP Biomedicals) using lysing matrix D (MPBio #6913-100) at 6 m/s for 20 seconds. Homogenates were centrifuged at 20800×g for 5 min and supernatants collected. Supernatants were centrifuged at 221.300×g for 50 min. The resulting high speed supernatants were then transferred to fresh eppendorf tubes. Nine parts of supernatant were neutralized with 1 part 0.5 M Tris-HCl pH 6.8 and used to quantify Aβ.
To quantify the amount of Aβ42, Aβ40, Aβ38, and Aβ37 in the soluble fraction of the brain homogenates, simultaneous specific detection of Aβ42, Aβ40, Aβ38, and Aβ37 was performed using MSD's electro-chemiluminescence multiplex detection technology. In this assay purified monoclonal antibodies specific for Abeta37 (JRD/Aβ37/3), Abeta38 (J&JPRD/Aβ38/5), Abeta40 (JRF/cAβ40/28), and Abeta42 (JRF/cAβ42/26) were coated on MSD 4-plex plates. Briefly, the standards (a dilution of synthetic Aβ42, Aβ40, Aβ38, and Aβ37) were prepared in 1.5 ml Eppendorf tube in Ultraculture, with final concentrations ranging from 10000 to 0.3 pg/m. The samples and standards were co-incubated with Sulfo-tag labelled JRF/rAβ/2 antibody to the N-terminus of Aβ as detector antibody. 50 μl of conjugate/sample or conjugate/standards mixtures were then added to the antibody-coated plate. The plate was allowed to incubate overnight at 4° C. in order to allow formation of the antibody-amyloid complex. Following this incubation and subsequent wash steps the assay was finished by adding read buffer according to the manufacturer's instructions (Meso Scale Discovery, Gaitherburg, Md.).
The SULFO-TAG emits light upon electrochemical stimulation initiated at the electrode. MSD Sector instrument SI6000 was used for signal read-out.
The results are shown in Table 7 (value for untreated animals as control (Ctrl) was set at 100): […]

Data set [2] has as its system Abeta 1-42 produced and secreted by human neuroblastoma SKNBE2 cells expressing hAPP695. The data set is described as follows: Cellular αLisa assay in SKNBE2 cells, Abeta 1-42. As to conditions: 18 hours incubation, read-out: Cellular αLisa assay in SKNBE2 cells Abeta 42 pIC50 (converted). The format is cell-based. Here is the method: In two αLisa assays the levels of Abeta total and Abeta 1-42 produced and secreted into the medium of human neuroblastoma SKNBE2 cells are quantified. The assay is based on the human neuroblastoma SKNBE2 expressing the wild type Amyloid Precursor Protein (hAPP695). The compounds are diluted and added to these cells, incubated for 18 hours and then measurements of Abeta 1-42 and Abeta total are taken. Abeta total and Abeta 1-42 are measured by sandwich αLisa. αLisa is a sandwich assay using biotinylated antibody AbN/25 attached to streptavidin coated beads and antibody Ab4G8 or cAb42/26 conjugated acceptor beads for the detection of Abeta total and Abeta 1-42 respectively. In the presence of Abeta total or Abeta 1-42, the beads come into close proximity. The excitation of the donor beads provokes the release of singlet oxygen molecules that trigger a cascade of energy transfer in the acceptor beads, resulting in light emission. Light emission is measured after 1 hour incubation (excitation at […] and emission at 615 nm).
A best-fit curve is fitted by a minimum sum of squares method to the plot of % Controlmin versus compound concentration. From this an IC50 value (inhibitory concentration causing 50% inhibition of activity) can be obtained. • LC=Median of the low control values • =Low control: cells preincubated without compound, without biotinylated Ab in the αLisa • HC=Median of the High control values • =High Control: cells preincubated without compound • % Effect=100−[(sample−LC)/(HC−LC)*100] • % Control=(sample/HC)*100 • % Controlmin=(sample−LC)/(HC−LC)*100

Setting [3] is: dose 10, s.c., 2 h after administration.
The mark [4] stands for this setting: dose 10, s.c., 4 h after administration.
[5] abbreviates: dose 10, p.o., 4 h after administration.

SMILES strings stand for the structures.

Take `Cn1cc2n(c1=O)C[C@@](C)(c1cc(NC(=O)c3ccc(C#N)cn3)ccc1F)N=C2N` [Compound 1, N-{3-[(6R)-8-Amino-2,6-dimethyl-3-oxo-2,3,5,6-tetrahydroimidazo[1,5-a]pyrazin-6-yl]-4-fluorophenyl}-5-cyanopyridine-2-carboxamide]: the “Aβ40 (% vs Ctrl)_Mean” value in data set [1] (setting [3]) is 105 % vs Ctrl; in data set [1] (setting [4]), 132 % vs Ctrl. Besides, the figures for the “Aβ42 (% vs Ctrl)_Mean” value in data set [1] (setting [3]) and in data set [1] (setting [4]) were 105 % vs Ctrl and 109 % vs Ctrl, respectively. Further, the IC50 in data set [2] was 13.2 nM.
Take `Cc1nc(C(=O)Nc2ccc(F)c([C@]3(C)Cn4c(cn(C)c4=O)C(N)=N3)c2)co1` [Compound 3, N-{3-[(6R)-8-Amino-2,6-dimethyl-3-oxo-2,3,5,6-tetrahydroimidazo[1,5-a]pyrazin-6-yl]-4-fluorophenyl}-2-methyl-1,3-oxazole-4-carboxamide]: in data set [1] (setting [5]), the “Aβ40 (% vs Ctrl)_Mean” value turned out to be 94 % vs Ctrl and the “Aβ42 (% vs Ctrl)_Mean” value worked out at 97 % vs Ctrl. The IC50 in data set [2] is 57.5 nM.
Compound `Cn1cc2n(c1=O)C[C@@](C)(c1cc(NC(=O)c3ccc(Cl)cn3)ccc1F)N=C2N` [Compound 4, N-{3-[(6R)-8-amino-2,6-dimethyl-3-oxo-5H-imidazo[1,5-a]pyrazin-6-yl]-4-fluoro-phenyl}-5-chloro-pyridine-2-carboxamide] had a melting point of 214.8 °C. In addition, in data set [1] (setting [4]), the “Aβ40 (% vs Ctrl)_Mean” value is on record as 121 % vs Ctrl and the “Aβ42 (% vs Ctrl)_Mean” value was determined as 125 % vs Ctrl. In addition, the IC50 in data set [2] was 6.31 nM.
